{"source": "patent US12077503B2", "about": "“Substituted cyclic amides and their use as herbicides” (FMC CORPORATION, priority 2015, dated 2024)", "key": {"corn (Zea mays)": {"system": "corn (Zea mays)", "test": "Test A postemergence", "format": "in vivo", "settings": "Zea mays, post-emergence, 240 h; for Corn plant response rating (crop injury, 0 = no effect, 100 = complete kill) at 125 g/ha / plant injury at 125 g/ha: 125 g ai/ha; for Corn plant response rating (crop injury, 0 = no effect, 100 = complete kill) at 125 g/ha: postemergence, visual injury after approximately 10 d; for Corn plant response rating (crop injury, 0 = no effect, 100 = complete kill) at 125 g/ha / Corn plant response rating (crop injury, 0 = no effect, 100 = complete kill) at 500 g/ha: 0 to 100 scale (0 no effect, 100 complete control); for plant injury at 125 g/ha: visual rating about 10 d after treatment, read-out: Corn plant response rating (0 to 100 scale); for Corn plant response rating (crop injury, 0 = no effect, 100 = complete kill) at 500 g/ha: 500 g ai/ha, visual injury, approx. 10 d", "procedure,_shortened": "(§1)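 In a loam soil and sand blend, planted seeds got a preemergence directed soil spray, and young plants at the one- to two-leaf stage, 2–10 cm high, got a postemergence application; ~10 d greenhouse hold; injury rated visually, 0 = none, 100 = complete control.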"}, "[1]": {"system": "Galium (catchweed bedstraw, Galium aparine)", "test": "Test A postemergence", "format": "in vivo", "settings": "Galium, post-emergence, 240 h; for pest or weed control at 125 g/ha: 125 g ai/ha; for pest or weed control at 500 g/ha: 500 g ai/ha, visual injury, approx. 10 d", "procedure,_shortened": "as §1"}, "Kochia (Kochia scoparia)": {"system": "Kochia (Kochia scoparia)", "test": "Test A postemergence", "format": "in vivo", "settings": "Bassia scoparia, post-emergence, 240 h; for pest or weed control at 125 g/ha: 125 g ai/ha; for pest or weed control at 500 g/ha: 500 g ai/ha, visual injury, approx. 10 d", "procedure,_shortened": "as §1"}, "[2]": {"system": "ragweed (common ragweed, Ambrosia elatior)", "test": "Test A postemergence", "format": "in vivo", "settings": "Ambrosia artemisiifolia, post-emergence, 240 h; for pest or weed control at 125 g/ha: 125 g ai/ha; for pest or weed control at 500 g/ha: 500 g ai/ha, visual injury, approx. 10 d", "procedure,_shortened": "as §1"}, "[3]": {"system": "barnyardgrass (Echinochloa crus-galli)", "test": "Test A postemergence", "format": "in vivo", "settings": "Echinochloa crus-galli, post-emergence, 240 h; for pest or weed control at 125 g/ha: 125 g ai/ha; for pest or weed control at 500 g/ha: 500 g ai/ha, visual injury, approx. 10 d", "procedure,_shortened": "as §1"}, "[4]": {"settings": "postemergence, visual injury after approximately 10 d, 0 to 100 scale (0 no effect, 100 complete control), read-out: Plant response rating, Galium"}, "[5]": {"settings": "postemergence, visual injury after approximately 10 d, 0 to 100 scale (0 no effect, 100 complete control), read-out: Plant response rating, Kochia"}, "[6]": {"settings": "postemergence, visual injury after approximately 10 d, 0 to 100 scale (0 no effect, 100 complete control), read-out: Plant response rating, Ragweed"}, "[7]": {"settings": "postemergence, visual injury after approximately 10 d, 0 to 100 scale (0 no effect, 100 complete control), read-out: Plant response rating, Barnyardgrass"}, "[8]": {"settings": "Postemergence, visual rating about 10 d after treatment, read-out: Galium plant response rating (0 to 100 scale)"}, "[9]": {"settings": "Postemergence, 0 to 100 scale (0 no effect, 100 complete control), read-out: Plant response rating, Galium"}, "[10]": {"settings": "Postemergence, visual rating about 10 d after treatment, read-out: Kochia plant response rating (0 to 100 scale)"}, "[11]": {"settings": "Postemergence, 0 to 100 scale (0 no effect, 100 complete control), read-out: Plant response rating, Kochia"}, "[12]": {"settings": "Postemergence, visual rating about 10 d after treatment, read-out: Ragweed plant response rating (0 to 100 scale)"}, "[13]": {"settings": "Postemergence, 0 to 100 scale (0 no effect, 100 complete control), read-out: Plant response rating, Ragweed"}, "[14]": {"settings": "Postemergence, visual rating about 10 d after treatment, read-out: Barnyardgrass plant response rating (0 to 100 scale, 0 no effect, 100 complete control)"}, "[15]": {"settings": "Postemergence, 0 to 100 scale (0 no effect, 100 complete control), read-out: Plant response rating, Barnyardgrass"}}, "note": "Read-outs that look alike come from different tables or passages of the source.", "data": [{"smiles": "C/C=C/C1CNC(=O)C1C(=O)Nc1ccccc1F", "note": "(stereo not drawn) [Compound 792]", "values": [{"measurement": "Corn plant response rating (crop injury, 0 = no effect, 100 = complete kill) at 125 g/ha", "setting": "corn (Zea mays)", "result": 0, "unit": "%"}, {"measurement": "Corn plant response rating (crop injury, 0 = no effect, 100 = complete kill) at 31 g/ha", "setting": "corn (Zea mays); Postemergence, 31 g ai/ha, visual injury after approx. 10 d, 0 to 100 scale, 0 no effect, 100 complete control", "result": 0, "unit": "%"}, {"measurement": "pest or weed control at 125 g/ha", "setting": "[1]; [4]", "result": 0, "unit": "%"}, {"measurement": "pest or weed control at 31 g/ha", "setting": "[1]; Postemergence, 31 g ai/ha, visual injury after approx. 10 d, 0 to 100 scale, 0 no effect, 100 complete control, read-out: Plant response rating, Galium", "result": 0, "unit": "%"}, {"measurement": "pest or weed control at 125 g/ha", "setting": "Kochia (Kochia scoparia); [5]", "result": 0, "unit": "%"}, {"measurement": "pest or weed control at 31 g/ha", "setting": "Kochia (Kochia scoparia); Postemergence, 31 g ai/ha, visual injury after approx. 10 d, 0 to 100 scale, 0 no effect, 100 complete control, read-out: Plant response rating, Kochia", "result": 0, "unit": "%"}, {"measurement": "pest or weed control at 125 g/ha", "setting": "[2]; [6]", "result": 0, "unit": "%"}, {"measurement": "pest or weed control at 31 g/ha", "setting": "[2]; Postemergence, 31 g ai/ha, visual injury after approx. 10 d, 0 to 100 scale, 0 no effect, 100 complete control, read-out: Plant response rating, Ragweed", "result": 0, "unit": "%"}, {"measurement": "pest or weed control at 125 g/ha", "setting": "[3]; [7]", "result": 0, "unit": "%"}, {"measurement": "pest or weed control at 31 g/ha", "setting": "[3]; Postemergence, 31 g ai/ha, visual injury after approx. 10 d, 0 to 100 scale, 0 no effect, 100 complete control, read-out: Plant response rating, Barnyardgrass", "result": 0, "unit": "%"}, {"measurement": "melting point", "result": "133 to 137", "unit": "°C"}]}, {"smiles": "O=C1NC[C@H](c2nccc(C(F)(F)F)n2)[C@H]1C(=O)Nc1ccccc1F", "note": "[Compound 1304]", "values": [{"measurement": "plant injury at 125 g/ha", "setting": "corn (Zea mays); Postemergence", "result": 0, "unit": "%"}, {"measurement": "Corn plant response rating (crop injury, 0 = no effect, 100 = complete kill) at 500 g/ha", "setting": "corn (Zea mays); Postemergence", "result": 0, "unit": "%"}, {"measurement": "pest or weed control at 125 g/ha", "setting": "[1]; [8]", "result": 0, "unit": "%"}, {"measurement": "pest or weed control at 500 g/ha", "setting": "[1]; [9]", "result": 0, "unit": "%"}, {"measurement": "pest or weed control at 125 g/ha", "setting": "Kochia (Kochia scoparia); [10]", "result": 0, "unit": "%"}, {"measurement": "pest or weed control at 500 g/ha", "setting": "Kochia (Kochia scoparia); [11]", "result": 0, "unit": "%"}, {"measurement": "pest or weed control at 125 g/ha", "setting": "[2]; [12]", "result": 0, "unit": "%"}, {"measurement": "pest or weed control at 500 g/ha", "setting": "[2]; [13]", "result": 0, "unit": "%"}, {"measurement": "pest or weed control at 125 g/ha", "setting": "[3]; [14]", "result": 0, "unit": "%"}, {"measurement": "pest or weed control at 500 g/ha", "setting": "[3]; [15]", "result": 0, "unit": "%"}, {"measurement": "melting point", "result": "166 to 170", "unit": "°C"}]}, {"smiles": "O=C1NC[C@H](c2cnc(C(F)(F)F)nc2)[C@H]1C(=O)Nc1ccccc1F", "note": "[Compound 741]", "values": [{"measurement": "Corn plant response rating (crop injury, 0 = no effect, 100 = complete kill) at 125 g/ha", "setting": "corn (Zea mays)", "result": 0, "unit": "%"}, {"measurement": "pest or weed control at 125 g/ha", "setting": "[1]; [4]", "result": 0, "unit": "%"}, {"measurement": "pest or weed control at 125 g/ha", "setting": "Kochia (Kochia scoparia); [5]", "result": 0, "unit": "%"}, {"measurement": "pest or weed control at 125 g/ha", "setting": "[2]; [6]", "result": 0, "unit": "%"}, {"measurement": "pest or weed control at 125 g/ha", "setting": "[3]; [7]", "result": 0, "unit": "%"}, {"measurement": "melting point", "result": "227 to 231", "unit": "°C"}]}, {"smiles": "O=C1NC[C@H](c2cncs2)[C@H]1C(=O)Nc1cccc(F)c1F", "note": "[Compound 1336]", "values": [{"measurement": "plant injury at 125 g/ha", "setting": "corn (Zea mays); Postemergence", "result": 0, "unit": "%"}, {"measurement": "Corn plant response rating (crop injury, 0 = no effect, 100 = complete kill) at 500 g/ha", "setting": "corn (Zea mays); Postemergence", "result": 0, "unit": "%"}, {"measurement": "pest or weed control at 125 g/ha", "setting": "[1]; [8]", "result": 0, "unit": "%"}, {"measurement": "pest or weed control at 500 g/ha", "setting": "[1]; [9]", "result": 0, "unit": "%"}, {"measurement": "pest or weed control at 125 g/ha", "setting": "Kochia (Kochia scoparia); [10]", "result": 0, "unit": "%"}, {"measurement": "pest or weed control at 500 g/ha", "setting": "Kochia (Kochia scoparia); [11]", "result": 0, "unit": "%"}, {"measurement": "pest or weed control at 125 g/ha", "setting": "[2]; [12]", "result": 0, "unit": "%"}, {"measurement": "pest or weed control at 500 g/ha", "setting": "[2]; [13]", "result": 0, "unit": "%"}, {"measurement": "pest or weed control at 125 g/ha", "setting": "[3]; [14]", "result": 0, "unit": "%"}, {"measurement": "pest or weed control at 500 g/ha", "setting": "[3]; [15]", "result": 0, "unit": "%"}, {"measurement": "melting point", "result": "111 to 142", "unit": "°C"}]}]}
